Among the data in paper PMC7690782, “Liver-Targeting Class I Selective Histone Deacetylase Inhibitors Potently Suppress Hepatocellular Tumor Growth as Standalone Agents” (Cancers, 2020) are IC50 values, retold here.

Assay in all cases: Fluor de Lys fluorescence deacetylase inhibition assay
Format in all cases: biochemical
Holding throughout (conditions): read-out: 1 (IC50)

One experiment has as its target T1, HDAC8 (Homo sapiens, UniProt Q9BY41).
T1 construct: enzyme of BPS Bioscience contract assay
T1 sequence (Q9BY41 1-377): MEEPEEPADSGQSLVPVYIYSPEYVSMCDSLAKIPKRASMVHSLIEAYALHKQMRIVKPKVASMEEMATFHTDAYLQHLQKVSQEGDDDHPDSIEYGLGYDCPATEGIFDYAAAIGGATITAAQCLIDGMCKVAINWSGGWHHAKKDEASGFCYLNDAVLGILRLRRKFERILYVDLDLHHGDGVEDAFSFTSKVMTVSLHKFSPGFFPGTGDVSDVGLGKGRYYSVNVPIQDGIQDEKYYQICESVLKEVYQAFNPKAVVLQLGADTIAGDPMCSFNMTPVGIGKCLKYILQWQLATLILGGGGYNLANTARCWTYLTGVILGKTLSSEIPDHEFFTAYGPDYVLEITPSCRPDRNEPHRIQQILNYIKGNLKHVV
The source says: Fluor de Lys fluorescence deacetylase inhibition assay on HDAC8

The next experiment has as its target T2, HDAC4 (Homo sapiens, UniProt P56524).
T2 construct: enzyme of BPS Bioscience contract assay
The source says: Fluor de Lys fluorescence deacetylase inhibition assay on HDAC4

The next experiment deals with T3, HDAC2 (Homo sapiens, UniProt Q92769).
T3 construct: enzyme of BPS Bioscience contract assay
The source says:
Fluor de Lys fluorescence deacetylase inhibition assay on HDAC2

The next experiment deals with T4, HDAC10 (Homo sapiens, UniProt Q969S8).
T4 construct: enzyme of BPS Bioscience contract assay
T4 sequence (Q969S8 1-669): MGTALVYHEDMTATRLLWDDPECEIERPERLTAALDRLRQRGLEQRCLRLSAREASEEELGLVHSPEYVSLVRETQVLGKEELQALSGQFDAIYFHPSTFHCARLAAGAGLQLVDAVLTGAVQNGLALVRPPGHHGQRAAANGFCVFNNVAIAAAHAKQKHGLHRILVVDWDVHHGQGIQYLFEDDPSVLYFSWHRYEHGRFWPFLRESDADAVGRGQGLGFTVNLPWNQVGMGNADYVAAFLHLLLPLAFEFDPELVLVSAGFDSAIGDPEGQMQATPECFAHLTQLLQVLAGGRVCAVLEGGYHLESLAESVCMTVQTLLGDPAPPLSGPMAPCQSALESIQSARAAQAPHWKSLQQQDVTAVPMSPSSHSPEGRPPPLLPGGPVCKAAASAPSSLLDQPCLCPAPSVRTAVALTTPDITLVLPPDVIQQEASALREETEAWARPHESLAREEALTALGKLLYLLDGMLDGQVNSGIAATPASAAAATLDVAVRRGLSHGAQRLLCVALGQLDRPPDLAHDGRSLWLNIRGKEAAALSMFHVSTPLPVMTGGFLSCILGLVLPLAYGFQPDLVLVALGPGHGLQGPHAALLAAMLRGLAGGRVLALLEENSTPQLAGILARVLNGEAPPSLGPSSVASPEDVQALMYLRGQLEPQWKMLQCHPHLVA
The source says:
Fluor de Lys fluorescence deacetylase inhibition assay on HDAC10

The target in a further experiment is T5, HDAC6 (Homo sapiens, UniProt Q9UBN7).
T5 construct: enzyme of BPS Bioscience contract assay
T5 sequence (Q9UBN7 1-1215): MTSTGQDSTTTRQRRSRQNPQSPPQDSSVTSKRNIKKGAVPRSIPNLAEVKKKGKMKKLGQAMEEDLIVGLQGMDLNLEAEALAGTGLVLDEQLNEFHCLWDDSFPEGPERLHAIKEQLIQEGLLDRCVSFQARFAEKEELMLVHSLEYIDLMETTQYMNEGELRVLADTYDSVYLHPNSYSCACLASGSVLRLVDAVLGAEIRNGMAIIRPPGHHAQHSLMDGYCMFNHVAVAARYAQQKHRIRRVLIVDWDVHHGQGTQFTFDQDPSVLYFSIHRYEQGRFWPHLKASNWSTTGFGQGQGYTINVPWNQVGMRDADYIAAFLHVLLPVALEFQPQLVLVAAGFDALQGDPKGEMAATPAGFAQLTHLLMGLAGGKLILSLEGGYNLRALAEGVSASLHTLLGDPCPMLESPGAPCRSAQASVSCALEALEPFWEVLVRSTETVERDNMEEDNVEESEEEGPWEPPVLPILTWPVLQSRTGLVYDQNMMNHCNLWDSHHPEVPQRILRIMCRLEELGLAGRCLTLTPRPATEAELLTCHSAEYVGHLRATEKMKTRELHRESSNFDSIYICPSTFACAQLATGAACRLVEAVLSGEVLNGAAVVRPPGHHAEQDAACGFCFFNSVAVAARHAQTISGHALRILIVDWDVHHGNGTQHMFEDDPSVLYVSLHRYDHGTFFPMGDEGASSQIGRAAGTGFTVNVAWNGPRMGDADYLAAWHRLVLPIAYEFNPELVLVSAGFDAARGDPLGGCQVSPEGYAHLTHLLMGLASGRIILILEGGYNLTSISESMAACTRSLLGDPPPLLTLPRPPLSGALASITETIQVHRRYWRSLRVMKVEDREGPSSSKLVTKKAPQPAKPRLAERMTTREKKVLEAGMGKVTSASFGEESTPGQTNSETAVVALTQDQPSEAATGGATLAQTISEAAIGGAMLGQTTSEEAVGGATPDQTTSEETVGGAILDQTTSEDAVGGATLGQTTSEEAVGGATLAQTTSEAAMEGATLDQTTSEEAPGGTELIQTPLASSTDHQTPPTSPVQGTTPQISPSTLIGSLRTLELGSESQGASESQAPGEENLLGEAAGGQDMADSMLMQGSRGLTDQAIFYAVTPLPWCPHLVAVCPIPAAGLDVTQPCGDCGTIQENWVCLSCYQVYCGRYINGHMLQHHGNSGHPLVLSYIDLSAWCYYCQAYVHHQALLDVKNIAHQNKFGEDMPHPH
The source says: Fluor de Lys fluorescence deacetylase inhibition assay on HDAC6

A further experiment concerns the target T6, HDAC5 (Homo sapiens, UniProt Q9UQL6).
T6 construct: enzyme of BPS Bioscience contract assay
The source says:
Fluor de Lys fluorescence deacetylase inhibition assay on HDAC5

The next experiment concerns the target T7, HDAC9 (Homo sapiens, UniProt Q9UKV0).
T7 construct: enzyme of BPS Bioscience contract assay
The source says:
Fluor de Lys fluorescence deacetylase inhibition assay on HDAC9

The next experiment addresses T8, HDAC7 (Homo sapiens, UniProt Q8WUI4).
T8 construct: enzyme of BPS Bioscience contract assay
T8 sequence (Q8WUI4 518-952 limits assumed): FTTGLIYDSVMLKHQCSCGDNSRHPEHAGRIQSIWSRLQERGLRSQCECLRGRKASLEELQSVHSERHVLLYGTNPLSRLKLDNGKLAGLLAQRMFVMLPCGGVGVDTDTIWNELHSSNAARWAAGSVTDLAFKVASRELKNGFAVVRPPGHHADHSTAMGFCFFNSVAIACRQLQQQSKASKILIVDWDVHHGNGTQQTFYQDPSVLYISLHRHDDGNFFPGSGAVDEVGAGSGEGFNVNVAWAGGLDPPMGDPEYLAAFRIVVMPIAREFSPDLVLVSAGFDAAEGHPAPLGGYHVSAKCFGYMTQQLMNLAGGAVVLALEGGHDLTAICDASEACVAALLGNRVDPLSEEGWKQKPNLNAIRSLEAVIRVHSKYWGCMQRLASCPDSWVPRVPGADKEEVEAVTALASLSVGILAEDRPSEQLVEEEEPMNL
The source says: Fluor de Lys fluorescence deacetylase inhibition assay on HDAC7

In the next experiment the target is T9, HDAC1 (Homo sapiens, UniProt Q13547).
T9 construct: enzyme of BPS Bioscience contract assay
The source says:
Fluor de Lys fluorescence deacetylase inhibition assay on HDAC1

In the next experiment the target is T10, HDAC11 (Homo sapiens, UniProt Q96DB2).
T10 construct: enzyme of BPS Bioscience contract assay
T10 sequence (Q96DB2 1-347): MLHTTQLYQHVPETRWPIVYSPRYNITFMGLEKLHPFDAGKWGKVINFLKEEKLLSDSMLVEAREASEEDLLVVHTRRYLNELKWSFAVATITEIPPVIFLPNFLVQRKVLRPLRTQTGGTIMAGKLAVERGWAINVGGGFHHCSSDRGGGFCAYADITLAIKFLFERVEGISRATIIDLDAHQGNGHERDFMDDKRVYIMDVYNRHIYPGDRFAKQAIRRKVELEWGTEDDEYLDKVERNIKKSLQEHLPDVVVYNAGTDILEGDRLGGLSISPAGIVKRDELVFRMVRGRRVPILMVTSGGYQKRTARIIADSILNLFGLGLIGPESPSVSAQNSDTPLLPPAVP
The source says:
Fluor de Lys fluorescence deacetylase inhibition assay on HDAC11

T9 sequence (Q13547 whole entry): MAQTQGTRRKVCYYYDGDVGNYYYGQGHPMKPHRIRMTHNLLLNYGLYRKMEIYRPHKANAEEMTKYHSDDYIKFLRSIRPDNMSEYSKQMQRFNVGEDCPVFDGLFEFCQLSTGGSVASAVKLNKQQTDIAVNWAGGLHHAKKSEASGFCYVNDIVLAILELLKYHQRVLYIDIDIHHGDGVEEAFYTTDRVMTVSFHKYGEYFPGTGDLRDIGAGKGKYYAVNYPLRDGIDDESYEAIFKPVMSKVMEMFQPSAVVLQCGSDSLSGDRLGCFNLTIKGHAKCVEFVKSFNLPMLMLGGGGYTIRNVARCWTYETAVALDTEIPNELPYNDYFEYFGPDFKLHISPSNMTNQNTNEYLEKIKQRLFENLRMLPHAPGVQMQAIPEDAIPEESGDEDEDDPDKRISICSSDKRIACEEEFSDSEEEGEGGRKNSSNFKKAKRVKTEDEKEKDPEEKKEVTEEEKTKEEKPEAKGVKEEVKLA
T2 sequence (P56524 627-1084 limits assumed): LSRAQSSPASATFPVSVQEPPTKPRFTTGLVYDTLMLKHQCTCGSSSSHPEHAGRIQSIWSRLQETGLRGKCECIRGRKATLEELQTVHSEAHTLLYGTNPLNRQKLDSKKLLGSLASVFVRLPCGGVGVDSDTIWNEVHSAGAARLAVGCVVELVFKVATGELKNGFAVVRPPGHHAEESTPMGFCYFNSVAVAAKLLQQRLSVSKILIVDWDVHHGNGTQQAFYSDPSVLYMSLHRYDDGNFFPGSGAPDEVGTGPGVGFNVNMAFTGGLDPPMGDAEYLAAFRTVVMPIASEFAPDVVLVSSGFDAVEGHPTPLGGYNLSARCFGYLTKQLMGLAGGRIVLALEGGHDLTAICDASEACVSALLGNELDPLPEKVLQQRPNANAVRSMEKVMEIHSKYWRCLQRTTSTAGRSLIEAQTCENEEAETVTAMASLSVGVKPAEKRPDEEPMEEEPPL
T7 sequence (Q9UKV0 whole entry): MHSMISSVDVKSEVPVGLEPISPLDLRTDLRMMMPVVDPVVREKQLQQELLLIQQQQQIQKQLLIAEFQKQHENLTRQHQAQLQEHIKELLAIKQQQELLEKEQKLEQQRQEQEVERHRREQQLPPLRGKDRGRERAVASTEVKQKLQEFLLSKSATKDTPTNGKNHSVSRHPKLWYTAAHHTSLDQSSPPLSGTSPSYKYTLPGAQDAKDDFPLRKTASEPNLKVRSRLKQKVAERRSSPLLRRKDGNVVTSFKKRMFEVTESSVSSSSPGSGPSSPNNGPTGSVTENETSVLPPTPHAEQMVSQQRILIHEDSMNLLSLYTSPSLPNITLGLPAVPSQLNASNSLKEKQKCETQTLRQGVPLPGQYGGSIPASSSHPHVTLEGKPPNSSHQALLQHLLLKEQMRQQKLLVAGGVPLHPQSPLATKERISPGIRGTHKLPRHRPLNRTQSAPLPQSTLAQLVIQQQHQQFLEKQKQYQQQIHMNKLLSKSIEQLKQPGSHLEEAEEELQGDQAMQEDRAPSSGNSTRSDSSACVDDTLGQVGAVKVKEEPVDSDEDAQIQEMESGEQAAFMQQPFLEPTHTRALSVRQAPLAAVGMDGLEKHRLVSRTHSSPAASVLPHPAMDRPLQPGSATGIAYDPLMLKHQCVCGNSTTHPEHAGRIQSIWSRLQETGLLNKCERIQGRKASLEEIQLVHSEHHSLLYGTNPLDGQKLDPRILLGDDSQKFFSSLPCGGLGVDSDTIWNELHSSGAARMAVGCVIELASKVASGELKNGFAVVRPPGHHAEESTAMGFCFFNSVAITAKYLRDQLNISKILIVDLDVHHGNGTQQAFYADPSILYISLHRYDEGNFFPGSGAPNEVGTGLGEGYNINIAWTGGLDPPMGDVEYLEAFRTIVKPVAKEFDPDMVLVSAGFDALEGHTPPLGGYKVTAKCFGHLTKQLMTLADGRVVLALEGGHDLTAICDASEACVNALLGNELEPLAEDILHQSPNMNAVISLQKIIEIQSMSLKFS
T3 sequence (Q92769 whole entry): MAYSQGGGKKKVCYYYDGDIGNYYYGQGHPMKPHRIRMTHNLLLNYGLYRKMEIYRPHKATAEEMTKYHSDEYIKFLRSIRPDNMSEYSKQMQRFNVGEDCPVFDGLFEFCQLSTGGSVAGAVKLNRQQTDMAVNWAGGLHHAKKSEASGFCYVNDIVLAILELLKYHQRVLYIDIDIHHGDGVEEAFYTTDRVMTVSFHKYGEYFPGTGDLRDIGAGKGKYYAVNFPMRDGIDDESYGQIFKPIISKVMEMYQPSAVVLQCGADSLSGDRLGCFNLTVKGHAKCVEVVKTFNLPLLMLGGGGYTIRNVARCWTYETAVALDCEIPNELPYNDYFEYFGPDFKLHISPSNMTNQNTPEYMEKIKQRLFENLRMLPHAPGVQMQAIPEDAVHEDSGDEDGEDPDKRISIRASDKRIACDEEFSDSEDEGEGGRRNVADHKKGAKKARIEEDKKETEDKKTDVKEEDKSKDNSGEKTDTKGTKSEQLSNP
T6 sequence (Q9UQL6 whole entry): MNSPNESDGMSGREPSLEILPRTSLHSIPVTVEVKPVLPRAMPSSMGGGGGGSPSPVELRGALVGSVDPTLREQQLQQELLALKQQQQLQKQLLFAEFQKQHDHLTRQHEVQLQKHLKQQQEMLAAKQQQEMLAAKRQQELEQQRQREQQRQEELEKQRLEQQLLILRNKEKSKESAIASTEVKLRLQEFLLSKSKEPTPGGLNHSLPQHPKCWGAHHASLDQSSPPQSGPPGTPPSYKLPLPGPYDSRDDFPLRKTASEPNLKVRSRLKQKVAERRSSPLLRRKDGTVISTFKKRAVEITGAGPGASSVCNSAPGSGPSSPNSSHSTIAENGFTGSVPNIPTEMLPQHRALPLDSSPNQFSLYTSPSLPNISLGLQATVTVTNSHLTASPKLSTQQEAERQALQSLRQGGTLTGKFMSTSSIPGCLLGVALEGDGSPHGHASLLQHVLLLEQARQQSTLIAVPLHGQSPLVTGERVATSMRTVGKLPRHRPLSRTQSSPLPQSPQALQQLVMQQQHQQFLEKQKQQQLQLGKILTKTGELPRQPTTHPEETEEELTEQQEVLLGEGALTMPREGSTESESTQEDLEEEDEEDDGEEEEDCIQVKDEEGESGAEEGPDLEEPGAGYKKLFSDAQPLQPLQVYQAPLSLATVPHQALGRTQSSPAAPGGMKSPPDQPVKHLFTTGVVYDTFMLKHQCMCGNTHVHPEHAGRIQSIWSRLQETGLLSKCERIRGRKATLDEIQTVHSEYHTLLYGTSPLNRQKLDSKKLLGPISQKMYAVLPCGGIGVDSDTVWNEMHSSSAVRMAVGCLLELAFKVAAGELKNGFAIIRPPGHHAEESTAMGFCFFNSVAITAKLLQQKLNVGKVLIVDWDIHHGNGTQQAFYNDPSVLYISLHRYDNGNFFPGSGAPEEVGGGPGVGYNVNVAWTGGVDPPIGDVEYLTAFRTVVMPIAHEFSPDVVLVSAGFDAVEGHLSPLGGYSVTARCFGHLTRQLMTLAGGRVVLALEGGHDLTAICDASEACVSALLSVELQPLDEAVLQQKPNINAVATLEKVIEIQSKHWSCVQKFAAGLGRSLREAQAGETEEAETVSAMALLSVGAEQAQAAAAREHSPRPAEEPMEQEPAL

Broadly, the IC50 is the concentration that inhibits the measured activity by half. With `CC[C@H]1OC(=O)[C@H](C)[C@@H](O[C@H]2C[C@@](C)(OC)[C@@H](O)[C@H](C)O2)[C@H](C)[C@@H](O[C@@H]2O[C@H](C)C[C@H](N(C)Cc3ccc(-c4cn(CCCCCCC(=O)NO)nn4)cc3)[C@H]2O)[C@](C)(O)C[C@@H](C)CN(C)[C@H](C)[C@@H](O)[C@]1(C)O` [compound 1], the IC50 at HDAC8 was 0.839 µM; at HDAC4, 1.9 µM; on HDAC2 it was 0.0081 µM; at HDAC10 it was 0.0045 µM; on HDAC6 it was 0.0017 µM; at HDAC5, 1.77 µM. For the same molecule, the IC50 on HDAC9 was 6.91 µM; on HDAC7, 2.62 µM; on HDAC1, 0.0027 µM; at HDAC11, 7.36 µM.
